One assay deals with APESV. Description: Example IV postemergence foliar-applied, greenhouse, cereal crops weeds. It is filed as in vivo, Apera spica-venti (L.) Beauv. How it is done:
(§1) Seeds of the desired test plant species were planted in Sun Gro MetroMix® 306 planting mixture, which typically has a pH of 6.0 to 6.8 and an organic matter content of about 30 percent, in plastic pots with a surface area of 103.2 square centimeters (cm^2). […] The plants were grown for 7-36 days in a greenhouse with an approximate 14 hour photoperiod which was maintained at about 18° C. during the day and about 17° C. during the night. Nutrients and water were added on a regular basis and supplemental lighting was provided with overhead metal halide 1000-Watt lamps as necessary. The plants were employed for testing when they reached the second or third true leaf stage.
(§2) Treatments consisted of the benzyl ester of 4-amino-3-chloro-5-fluoro-6-(4-chloro-2-fluoro-3-methoxy-phenyl)pyridine-2-carboxylic acid (Compound A), formulated as an SC, a second cereal herbicide alone and then both in combination.
(§3) Other herbicidal components were applied on an active ingredient basis and included acetyl-CoA carboxylase (ACCase)-inhibiting herbicides clodinafop-propargyl, fenoxaprop-P-ethyl, pinoxaden and tralkoxydim.
(§4) Measured aliquots of benzyl ester of 4-amino-3-chloro-5-fluoro-6-(4-chloro-2-fluoro-3-methoxy-phenyl)pyridine-2-carboxylic acid (Compound A) were placed in 25 milliliter (mL) glass vials and diluted in a volume of 1.25% (v/v) Agri-Dex® crop oil concentrate to obtain stock solutions. Compound requirements are based upon a 12 mL application volume at a rate of 187 liters per hectare (L/ha). […] Formulated compounds were applied to the plant material with an overhead Mandel track sprayer equipped with an 8002E nozzle calibrated to deliver 187 L/ha over an application area of 0.503 square meters (m^2) at a spray height of 18 inches (46 cm) above average plant canopy. Control plants were sprayed in the same manner with the solvent blank.
(§5) The treated plants and control plants were placed in a greenhouse as described above and watered by sub-irrigation to prevent wash-off of the test compounds. After 20-22 days, the condition of the test plants as compared with that of the control plants was determined visually and scored on a scale of 0 to 100 percent where 0 corresponds to no injury and 100 corresponds to complete kill.
(§6) Colby's equation was used to determine the herbicidal effects expected from the mixtures (Colby, S. R. 1967. Calculation of the synergistic and antagonistic response of herbicide combinations. Weeds 15:20-22.).
(§7) The following equation was used to calculate the expected activity of mixtures containing two active ingredients, A and B: Expected=A+B−(A×B/100)

Another assay has as its system LOLMU. The assay is described as above. It is filed as in vivo, Lolium multiflorum Lam. On the procedure: (§8) Seeds of the desired test plant species were planted in Sun Gro MetroMix® 306 planting mixture, which typically has a pH of 6.0 to 6.8 and an organic matter content of about 30 percent, in plastic pots with a surface area of 103.2 square centimeters (cm^2). When required to ensure good germination and healthy plants, a fungicide treatment and/or other chemical or physical treatment was applied. The plants were grown for 7-36 days in a greenhouse with an approximate 14 hour photoperiod which was maintained at about 18° C. during the day and about 17° C. during the night. Nutrients and water were added on a regular basis and supplemental lighting was provided with overhead metal halide 1000-Watt lamps as necessary. The plants were employed for testing when they reached the second or third true leaf stage.
as §2, §3
(§9) Measured aliquots of benzyl ester of 4-amino-3-chloro-5-fluoro-6-(4-chloro-2-fluoro-3-methoxy-phenyl)pyridine-2-carboxylic acid (Compound A) were placed in 25 milliliter (mL) glass vials and diluted in a volume of 1.25% (v/v) Agri-Dex® crop oil concentrate to obtain stock solutions. Compound requirements are based upon a 12 mL application volume at a rate of 187 liters per hectare (L/ha). Spray solutions of the second cereal herbicide and experimental compound mixtures were prepared by adding the stock solutions to the appropriate amount of dilution solution to form 12 mL spray solution with active ingredients in two- and three-way combinations. Formulated compounds were applied to the plant material with an overhead Mandel track sprayer equipped with an 8002E nozzle calibrated to deliver 187 L/ha over an application area of 0.503 square meters (m^2) at a spray height of 18 inches (46 cm) above average plant canopy. Control plants were sprayed in the same manner with the solvent blank.
as §5, §6, §7

The next assay has as its system KCHSC. The description is as above. It counts as in vivo, Kochia scoparia (L.) Schrad. On the procedure: as §1, §2, §3, §4, §5, §6, §7
The test system of the next assay is ALOMY. Described as above. It is filed as in vivo, Alopecurus myosuroides Huds. How it is done:
as §8, §2, §3, §9
(§10) The treated plants and control plants were placed in a greenhouse as described above and watered by sub-irrigation to prevent wash-off of the test compounds. After 20-22 days, the condition of the test plants as compared with that of the control plants was determined visually and scored on a scale of 0 to 100 percent where 0 corresponds to no injury and 100 corresponds to complete kill. […]

A further assay relates to PHAMI. The assay is described as above. It counts as in vivo, Phalaris minor Retz. On the procedure: as §1, §2, §3, §4, §5, §6, §7
The subject of a further assay is CYPIR. Nature of the assay: Example I postemergence foliar-applied, greenhouse, direct seeded rice weeds. It counts as in vivo, Cyperus iria L. The source says:
Seeds or nutlets of the desired test plant species were planted in a soil matrix prepared by mixing a loam or sandy loam soil (e.g., 28.6 percent silt, 18.8 percent clay, and 52.6 percent sand, with a pH of about 5.8 and an organic matter content of about 1.8 percent) and calcareous grit in an 80 to 20 ratio. The soil matrix was contained in plastic pots with a volume of 1 quart and a surface area of 83.6 square centimeters (cm^2). When required to ensure good germination and healthy plants, a fungicide treatment and/or other chemical or physical treatment was applied. The plants were grown for 8-22 days in a greenhouse with an approximate 14 hr. photoperiod which was maintained at about 29° C. during the day and 26° C. during the night. Nutrients (Peters Excel® 15-5-15 5-Ca 2-Mg and iron chelate) were applied in the irrigation solution as needed and water was added on a regular basis. Supplemental lighting was provided with overhead metal halide 1000-Watt lamps as necessary. The plants were employed for testing when they reached the first through fourth true leaf stage.
Treatments consisted of the acid or esters of 4-amino-3-chloro-5-fluoro-6-(4-chloro-2-fluoro-3-methoxy-phenyl)pyridine-2-carboxylic acid (Compound A), each formulated as an SC (suspension concentrate), and various herbicidal components alone and in combination.
Other herbicidal components were applied on an acid equivalent (ae) or active ingredient (ai) basis and included acetyl coA carboxylase (ACCase)-inhibiting herbicides (cyclohexanedione and aryloxyphenoxypropionate chemical classes) cyhalofop-butyl formulated as Clincher® SF (285 gr ai/L EC), diclofop-methyl formulated as Hoelon® 3EC, fenoxaprop-p-ethyl+isoxadifen-ethyl formulated as RiceStar® HT (0.58 lb./gal EC), fenoxaprop-p-ethyl+mefenpyr diethyl formulated as Puma® IEC, metamifop formulated as Metamifop EC, haloxyfop-methyl formulated as Gallant Super®, fluazifop-p-butyl formulated as Fusilade® DX, quizalofop-p-ethyl formulated as Assure® II, profoxydim formulated as Aura® 20EC, clethodim applied as Intensity®, sethoxydim formulated as Poast®, and tralkoxydim formulated as Achieve®.
Treatment requirements were calculated based upon the rates being tested, the concentration of active ingredient or acid equivalent in the formulation, and a 12 mL application volume at a rate of 187 L/ha.
For treatments comprised of formulated compounds, measured amounts of compounds were placed individually in 25 mL glass vials and diluted in a volume of 1.25% (v/v) Agri-Dex® crop oil concentrated to obtain 12× stock solutions. […] Application solutions were prepared by adding an appropriate amount of each stock solution (e.g., 1 mL) and diluted to the appropriate final concentrations with the addition of 10 mL of an aqueous mixture of 1.25% (v/v) crop oil concentrate so that the final spray solutions contained 1.25+/−0.05% (v/v) crop oil concentrate.
All stock solutions and applications solutions were visually inspected for compound compatibility prior to application. Spray solutions were applied to the plant material with an overhead Mandel track sprayer equipped with a 8002E nozzles calibrated to deliver 187 L/ha over an application area of 0.503 m^2 at a spray height of 18 to 20 inches (46 to 50 cm) above average plant canopy height. Control plants were sprayed in the same manner with the solvent blank.
The treated plants and control plants were placed in a greenhouse as described above and watered by sub-irrigation to prevent wash-off of the test compounds. After approximately 3 weeks, the condition of the test plants as compared with that of the untreated plants was determined visually and scored on a scale of 0 to 100 percent where 0 corresponds to no injury or growth inhibition and 100 corresponds to complete kill. […]

In the next assay the test system is AVEFA. Description: Example IV postemergence foliar-applied, greenhouse, cereal crops weeds. It counts as in vivo, Avena fatua L. On the procedure: as §8, §2, §3, §9, §10

For `C#CCOC(=O)[C@@H](C)Oc1ccc(Oc2ncc(Cl)cc2F)cc1` [Clodinafop-propargyl, 2-propynyl(2R)-2-[4-[(5-chloro-3-fluoro-2-pyridinyl)oxy]phenoxy]propanoate], the “Visual Weed Control (%) - 21 DAA APESV Obs” value in the assay on APESV (Clodinafop-propargyl 15 gai/ha) came to 15%; in the assay with APESV (Clodinafop-propargyl 30 gai/ha), 68%. Besides, the results for the “Visual Weed Control (%) - 21 DAA LOLMU Obs” value in the assay with LOLMU (Clodinafop-propargyl 15 gai/ha) and in the assay with LOLMU (Clodinafop-propargyl 30 gai/ha) were 60% and 48%, respectively. The “Visual Weed Control (%) - 21 DAA KCHSC Obs” value amounted to 0% in the assay with KCHSC (Clodinafop-propargyl 15 gai/ha) and 10% in the assay with KCHSC (Clodinafop-propargyl 30 gai/ha). Also, the “Visual Weed Control (%) - 21 DAA ALOMY Obs” value was determined as 80% with ALOMY (Clodinafop-propargyl 15 gai/ha) and 82% with ALOMY (Clodinafop-propargyl 30 gai/ha). Also, the entries for the “Visual Weed Control (%) - 21 DAA PHAMI Obs” value with PHAMI (Clodinafop-propargyl 15 gai/ha) and with PHAMI (Clodinafop-propargyl 30 gai/ha) were 48% and 55%, respectively.
For the compound `CCO/N=C(/CC)C1=C(O)CC(c2c(C)cc(C)cc2C)CC1=O` (stereo not drawn) [Tralkoxydim, 2-[1-(ethoxyimino)propyl]-3-hydroxy-5-(2,4,6-trimethylphenyl)-2-cyclohexen-1-one], the “Visual Weed Control (%) - 21 DAA LOLMU Obs” value with LOLMU (Tralkoxydim 50 gai/ha) is on record as 86%; with LOLMU (Tralkoxydim 100 gai/ha), 96%. Moreover, the entries for the “Visual Weed Control (%) - 21 DAA KCHSC Obs” value in the assay on KCHSC (Tralkoxydim 50 gai/ha) and in the assay on KCHSC (Tralkoxydim 100 gai/ha) were 10% and 0%, respectively. Besides, the “Visual Weed Control (%) - 22 DAA CYPIR Obs” value in the assay on CYPIR (100 gai/ha) and with CYPIR (200 gai/ha) was 0% in each case. Besides, the figures for the “Visual Weed Control (%) - 21 DAA AVEFA Obs” value in the assay with AVEFA (Tralkoxydim 50 gai/ha) and in the assay on AVEFA (Tralkoxydim 100 gai/ha) were 78% and 99%, respectively.
